Consider 7 compounds from patent publication US20260364003A1, “EYE DROP MICROSUSPENSIONS OF MTOR INHIBITORS” (OCULIS OPERATIONS SARL, priority 2022, published 2026).

The nature of series [1]: Physicochemical characterization of lipid microsuspensions (pH, viscosity, osmolality, particle size). The note with it: Table 9, lipid microsuspension containing the drug. An excerpt:
The diameter of a particle, such as a microparticle of mTOR inhibitor in oil and cyclodextrin/lipid complexes, can correspond to the D50 diameter of the particle. Diameter D50 is also known as the median diameter or the medium value of the particle size distribution. Diameter D50 corresponds to the value of the particle diameter at 50% in the cumulative distribution. For example, if D50 is 5 μm, then 50% of the particles in the sample are larger than 5 μm, and 50% smaller than 5 μm. Diameter D50 is usually used to represent the particle size of a group of particles.
The diameter and/or size of a particle can be measured according to any method known to those of ordinary skill in the art. For example, the diameter D50 is measured by laser diffraction particle size analysis. […] In particular, persons of ordinary skill in this field know that the physical properties (e.g. particle size, diameter, average diameter, mean particle size, etc.) are typically evaluated/measured using such limited, typical known techniques.
In specific embodiments, the particle size is measured by laser diffraction particle size analysis according to Pharm. […]
Following is a general procedure for preparation of a non-sterile lipid microsuspension at laboratory scale and for a total batch size of 100 g:
First, appropriate quantity of castor oil containing the dissolved drug-substance (i.e., everolimus) is transferred into a glass container. Second, under stirring with a magnetic stirrer aqueous α-cyclodextrin solution is added to the container. Third, aqueous solution containing EDTA and glycerol is added. Fourth, aqueous solution of Kolliphor HS15 is added. Mixing is continued for about 10 minutes before the stirring bar is removed and the suspension formed mixed with a high-shear homogenizer probe (Ultra-Turrax® T25 homogenizer, IKA-Werke, Germany, with probe IKA-S-25N-18G) operated at 8,000 RPM for about 10 minutes. […] The pH is adjusted to 5.3±0.1 with concentrated hydrochloric acid solution and/or sodium hydroxide solution. Finally, if needed, purified water is added to adjust the final weight of the sample to 100%.
The mixture obtained was homogenized for 10 minutes at 12,000 rpm using Ultra-Turrax® high shear homogenizer with S25N-18G probe at 12,000 rpm for 10 minutes. […] The lipid microsuspension formed was stirred by magnetic stirrer for 30 minutes at room temperature. Finally, the pH was adjusted by addition of hydrochloric acid and/or sodium hydroxide. […]

For series [2] the following is noted: Table 9; cited from earlier work.
For series [3] the following is noted: cited from earlier work; for chemical stability of derivative: sirolimus derivatives.
For series [4] the following is noted: from the microemulsion; cited from earlier work.
The conditions of series [5]: room temperature; cited from earlier work.
Series [6] in a line: Phase-solubility of everolimus in aqueous cyclodextrin solutions. The class given is physicochemical. As to conditions: pure aqueous cyclodextrin solutions, 25 °C. How it is done:
Everolimus was added to each cyclodextrin solution in excess, the samples were continuously agitated on a magnetic stirrer for 24 hours.

Take `CO[C@H]1C[C@@H]2CC[C@@H](C)[C@@](O)(O2)C(=O)C(=O)N2CCCC[C@H]2C(=O)O[C@H]([C@H](C)C[C@@H]2CC[C@@H](O)[C@H](OC)C2)CC(=O)[C@H](C)/C=C(\C)[C@@H](O)[C@@H](OC)C(=O)[C@H](C)C[C@H](C)/C=C/C=C/C=C/1C` [Sirolimus, sirolimus]: in series [1], the Osmolality is on record as 309 mOsmol/kg, the “Particle size Dx(10)” value turned out to be 1.5 μm, the “Particle size Dx(50)” value is reported as 5.7 μm and the “Particle size Dx(90)” value turned out to be 25 μm. Moreover, in series [1], the “Viscosity at 15 rpm” value is listed as 16.5 cP and the pH is listed as 5.9. In addition, the “Drug LogP” value in series [2] is reported as 6.0. For the same compound, the “stability in microemulsion eye drops” value in series [3] (microemulsion eye drops containing about 25% water) was “stable”. Besides, in series [4], the topical bioavailability result is recorded as “very low”.

On to `C[C@@H]1C[C@H]2[C@@H]3CCC4=CC(=O)C=C[C@]4(C)[C@@]3(F)[C@@H](O)C[C@]2(C)[C@@]1(O)C(=O)CO` [Dexamethasone, dexamethasone], for which, in series [1], the Osmolality was found to be 297 mOsmol/kg, the “Particle size Dx(10)” value was 1.4 μm, the “Particle size Dx(50)” value is recorded as 4.6 μm and the “Particle size Dx(90)” value is listed as 16 μm. In series [1], the “Viscosity at 15 rpm” value is 17.7 cP and the pH was 6.4. In addition, the “Drug LogP” value in series [2] is 1.9.

For the compound `CCOC(=O)O[C@]1(C(=O)OCCl)CC[C@H]2[C@@H]3CCC4=CC(=O)C=C[C@]4(C)[C@H]3[C@@H](O)C[C@@]21C` [Loteprednol etabonate, loteprednol etabonate], in series [1], the Osmolality is 282 mOsmol/kg, the “Particle size Dx(10)” value was found to be 1.5 μm, the “Particle size Dx(50)” value was determined as 6.2 μm and the “Particle size Dx(90)” value is 24 μm. In addition, in series [1], the “Viscosity at 15 rpm” value is 16.1 cP and the pH turned out to be 6.5. In series [2], the “Drug LogP” value was 3.9.

Turning to `CO[C@H]1C[C@@H]2CC[C@@H](C)[C@@](O)(O2)C(=O)C(=O)N2CCCC[C@H]2C(=O)O[C@H]([C@H](C)C[C@@H]2CC[C@@H](OC(=O)C(C)(CO)CO)[C@H](OC)C2)CC(=O)[C@H](C)/C=C(\C)[C@@H](O)[C@@H](OC)C(=O)[C@H](C)C[C@H](C)/C=C/C=C/C=C/1C` [Temsirolimus, 42-[3-hydroxy-2-(hydroxymethyl)-2-methylpropanoate]-rapamycin], in series [5], the solubility in water result is “about 7 mg/mL”. Further, the “chemical stability of derivative” value in series [3] was “do not improve the chemical stability”.

With `CO[C@H]1C[C@@H]2CC[C@@H](C)[C@@](O)(O2)C(=O)C(=O)N2CCCC[C@H]2C(=O)O[C@H]([C@H](C)C[C@@H]2CC[C@@H](OP(C)(C)=O)[C@H](OC)C2)CC(=O)[C@H](C)/C=C(\C)[C@@H](O)[C@@H](OC)C(=O)[C@H](C)C[C@H](C)/C=C/C=C/C=C/1C` [deforolimus, 42-(dimethylphosphinate)-rapamycin], the solubility in water result in series [5] is reported as “about 7 mg/mL”. Also, the “chemical stability of derivative” value in series [3] is reported as “do not improve the chemical stability”.

In the case of `OC[C@H]1O[C@@H]2O[C@H]3[C@H](O)[C@@H](O)[C@@H](O[C@H]4[C@H](O)[C@@H](O)[C@@H](O[C@H]5[C@H](O)[C@@H](O)[C@@H](O[C@H]6[C@H](O)[C@@H](O)[C@@H](O[C@H]7[C@H](O)[C@@H](O)[C@@H](O[C@H]1[C@H](O)[C@H]2O)O[C@@H]7CO)O[C@@H]6CO)O[C@@H]5CO)O[C@@H]4CO)O[C@@H]3CO` [α-cyclodextrin], the affinity for everolimus entry in series [6] was “lowest affinity”.

On to `C=CC[C@@H]1/C=C(\C)C[C@H](C)C[C@H](OC)[C@H]2O[C@@](O)(C(=O)C(=O)N3CCCC[C@H]3C(=O)O[C@H](/C(C)=C/[C@@H]3CC[C@@H](O)[C@H](OC)C3)[C@H](C)[C@@H](O)CC1=O)[C@H](C)C[C@@H]2OC` [Tacrolimus, tacrolimus], for which, in series [1], the Osmolality amounted to 304 mOsmol/kg, the “Particle size Dx(10)” value was determined as 1.5 μm, the “Particle size Dx(50)” value is on record as 5.3 μm and the “Particle size Dx(90)” value turned out to be 22 μm. In series [1], the “Viscosity at 15 rpm” value was 15.7 cP and the pH stood at 5.0.
